{"source": "patent US20250283885A1", "about": "“MODULAR BIOSENSOR FOR RECEPTOR TYROSINE KINASE ACTIVITY” (The Trustees of Princeton University, priority 2024, published 2025)", "key": {"[1]": {"test_system": "EGFR and Erk signaling", "assay": "EGFR pYtag and ErkKTR in MCF10A clusters on soft substrata", "type": "cell-based, human", "method": "At the tissue scale, the spatiotemporal distribution of RTK signaling can also be regulated by several processes including paracrine signaling, morphogen gradients, and the mechanical properties of the local microenvironment. It was therefore asked whether pYtags could be used to monitor RTK signaling in multicellular contexts.\nTo prepare polyacrylamide substrata, 1.5-mm-thick glass coverslips were pre-treated with glutaraldehyde. First, coverslips were treated with 0.1 N NaOH for 30 min, followed by rinsing with deionized water and air drying. Coverslips were then treated with 2% aminopropyltrimethoxysilane (Sigma Aldrich) in acetone for 30 min, washed three times with acetone, and left to air dry. Coverslips were treated with 0.5% glutaraldehyde (Sigma Aldrich) in PBS for 30 min, washed with deionized water, and left to air dry. Custom glass-bottom dishes were prepared by replacing the bottoms of 35 mm TCPS dishes with glutaraldehyde-treated coverslips, which were sealed using PDMS (Sigma Aldrich).\nTo investigate the dynamics of this spatial pattern, EGFR signaling was monitored using two live-cell biosensors: EGFR pYtag and a kinase translocation reporter for downstream signaling through Erk (ErkKTR)."}, "[2]": {"test_system": "ErbB2", "assay": "ErbB2 pYtag (with EGFR-Citrine) in NIH 3T3 cells: clearance of cytosolic ZtSH2", "type": "cell-based", "conditions": "NIH 3T3, required ITAMs on ErbB2 and co-expression of EGFR", "method": "One advantage of the pYtag approach is its modularity: ITAMs can in principle be fused to the C-termini of many different RTKs and recruit ZtSH2 upon stimulation. Therefore, it was tested whether pYtags could be adapted to monitor the activity of receptors other than EGFR. pYtag biosensors were designed for two additional RTKs: 1) ErbB2, a ligandless member of the ErbB family that signals by heterodimerizing with ligand-bound EGFR; and 2) fibroblast growth factor receptor 1 (FGFR1), a non-ErbB family RTK. ErbB2 is a particularly challenging RTK to study because it can only be activated in conjunction with an additional RTK (e.g., EGFR), so Grb2-based biosensors would be unable to distinguish between the activity of EGFR and ErbB2.\nStarting from NIH 3T3 cells expressing iRFP-ZtSH2, cell lines expressing either an ErbB2 pYtag (ErbB2-CD3ε-FusionRed), an FGFR1 pYtag (FGFR1-CD3ε-FusionRed), or ITAM-less variants of each were generated. For the ErbB2 case, cells with EGFR-Citrine were further transduced to express both required components of a functional receptor heterodimer (see FIG. 3, and FIGS. 4A-4B).\nThe pYtag approach is indeed modular, and this strategy can be readily adapted for monitoring the activation of distinct RTKs in individual cells."}, "[3]": {"test_system": "ErbB2", "assay": "Multiplexed pYtags in NIH 3T3 cells: ErbB2 reporter (iRFP-ZtSH2; ErbB2-CD3ε-FusionRed)", "type": "cell-based", "conditions": "100 ng/mL", "excerpt": "Having characterized an orthogonal pair of pYtags, it was recognized that these biosensors could be used to simultaneously monitor the activation of both EGFR and ErbB2. NIH 3T3 cells that co-expressed pYtags for EGFR (Clover-VISH2; EGFR-SLP76-BFP) and ErbB2 (iRFP-ZtSH2; ErbB2-CD3ε-FusionRed) were generated. […] VISH2 cleared from the cytosol almost immediately (<30 sec), indicating rapid phosphorylation of the EGFR C-terminal tail. […] Although the absolute magnitude of tSH2 biosensor clearance varied between cell lines (likely due to differences in affinity and expression level), the dynamics of EGFR and ErbB2 activation were highly reproducible in all cases, irrespective of the cell line or pYtag."}, "[4]": {"test_system": "EGFR R84K or A265V", "assay": "pYtag response of GBM-associated mutant EGFRs in NIH 3T3 cells", "type": "cell-based, mouse", "conditions": "20 ng/ml, NIH 3T3 cells expressing R84K or A265V EGFR", "excerpt": "To validate the prediction of our model, the dimerization affinity of EGFR was experimentally altered and signaling responses were monitored using pYtags. One can turn to glioblastoma multiform (GBM)-associated mutations in the extracellular domain of EGFR (R84K and A265V point mutations), which were previously shown to increase the dimerization affinity of EREG- and EPGN-bound receptors. These GBM-associated mutations were first modeled in EGFR by decreasing β and γ by 6-fold and 650-fold, respectively. […] NIH 3T3 cell lines expressing pYtag biosensors of EGFR variants harboring either the R84K or A265V mutation were then generated.\nThe data reveal ligand-dependent EGFR signaling dynamics at unprecedented temporal resolution and point to the dimerization affinity of ligand-bound receptors as a key parameter that governs these responses. More broadly, combining pYtags with mathematical modeling can shed mechanistic insight into the signaling dynamics of RTKs."}, "[5]": {"target": "EGFR (Homo sapiens, UniProt P00533)", "assay": "EGFR pYtag live-cell imaging: clearance of cytosolic ZtSH2 in NIH 3T3 cells", "source_text": "Six ITAMs from the CD3γ, CD3δ, CD3ε, and CD3ζ chains of the TCR. In each case, three identical repeats of the ITAM were fused to the C-terminal tail of EGFR followed by the FusionRed fluorescent protein (EGFR-ITAM-FusionRed). Each receptor was the co-expressed with an iRFP-labeled ZtSH2 (iRFP-ZtSH2) in NIH 3T3 fibroblasts, which express negligible levels of EGFR. […] Because ZtSH2 can in principle be recruited rapidly on and off the membrane and may localize to distinct subcellular compartments, it was reasoned that pYtags could be used to monitor the subcellular activity of an RTK in individual cells over time."}}}
{"substance": "EGF: epidermal growth factor, high-affinity EGFR ligand (NSDSECPLSHDGYCLHDGVCMYIEALDKYACNCVVGYIGERCQYRDLKWWELR; Epidermal growth factor; UniProt P01133 971-1023, looked up)", "values": [{"measurement": "Delay in EGFR and Erk signaling between periphery and interior of clusters", "setting": "[1]", "value": "2 to 4", "unit": "min"}, {"measurement": "Delay of Erk responses behind EGFR responses", "setting": "[1]", "value": "~4", "unit": "min"}, {"measurement": "ZtSH2 response of ErbB2 pYtag-expressing cells", "setting": "[2]", "value": "clearance of ZtSH2 from the cytosol"}, {"measurement": "Time of ZtSH2 clearance from the cytosol (ErbB2 phosphorylation)", "setting": "[3]", "value": "~3", "unit": "min"}]}
{"substance": "EREG: epiregulin, low-affinity EGFR ligand", "values": [{"measurement": "pYtag signaling response of GBM-associated mutant EGFR", "setting": "[4]", "value": "stronger response that gradually increased over time"}, {"measurement": "pYtag signaling response of WT EGFR", "setting": "[5]; 20 ng/ml, NIH 3T3 cells expressing WT EGFR", "value": "transient peak of activation and rapid plateau"}, {"measurement": "EGFR activity dynamics after low-affinity ligand", "setting": "[5]; varying doses, NIH 3T3 EGFR pYtag", "value": "rapid rise in EGFR activity followed by a plateau within minutes"}]}
